Values belong to the compound of their own block, whether it stands above or below them. Activity calls are given as the source filed them. No cut-off for these calls is given here.
Assays:
[1] = target: Phosphatidylinositol 4,5-bisphosphate 3-kinase catalytic subunit alpha isoform (Homo sapiens, UniProt P42336); experiment: Inhibition of PI3Kalpha assessed as reduction in PIP3 formation after 30 mins by fluorescence polarization assay
PC-3 = experiment: Antiproliferative activity against human PC3 cells incubated for 3 days; assay type: functional, cell-based; details: PC-3, 72 h
[2] = Clearance in rat; assay type: ADME, organism-based; details: in vivo
in vitro = details: human, liver microsomes
mouse Bcrp1 = experiment: in vitro; details: dog
[3] = Ratio of drug level in brain to plasma in CD-1 mouse at 15 mg/kg, po measured at 0.5 hrs; assay type: ADME, organism-based; parameters: dose 15 mg/kg, route oral; details: read-out: BPR
[4] = target: Serine/threonine-protein kinase mTOR (Homo sapiens, UniProt P42345); experiment: Inhibition of human recombinant mTOR (1360 to 2549 amino acids) assessed as reduction in phosphorylation of (GFP)-4-EBP1 after 30 mins by FRET assay; details: read-out: Ki(app)
[5] = Half life in po dosed CD-1 mouse; assay type: ADME, organism-based; details: in vivo
[6] = Plasma protein binding in CD-1 mouse; assay type: ADME, cell-free; details: read-out: PPB (converted)
[7] = Ratio of drug level in brain to plasma in CD-1 mouse at 15 mg/kg, po at 0.5 hr; assay type: ADME, organism-based; parameters: dose 15 mg/kg, route oral; details: read-out: BPR
[8] = Ratio of drug level in brain to plasma in CD-1 mouse at 15 mg/kg, po at 4 hrs; assay type: ADME, organism-based; parameters: dose 15 mg/kg, route oral; details: read-out: BPR
[9] = Protein binding in CD-1 mouse plasma at 25 mg/kg, po administered as single dose; assay type: ADME, organism-based; parameters: dose 25 mg/kg, route oral; details: read-out: PPB (converted)
[10] = Protein binding in CD-1 mouse brain at 25 mg/kg, po administered as single dose; assay type: ADME, organism-based; parameters: dose 25 mg/kg, route oral; details: read-out: PB (converted)
[11] = Clearance in po dosed CD-1 mouse; assay type: ADME, organism-based; details: in vivo
[12] = Oral bioavailability in CD-1 mouse; assay type: ADME, organism-based; details: in vivo
[13] = Ratio of drug level in brain to plasma in CD-1 mouse at 15 mg/kg, po at 1 hr; assay type: ADME, organism-based; parameters: dose 15 mg/kg, route oral; details: read-out: BPR
[14] = Ratio of drug level in brain to plasma in CD-1 mouse at 15 mg/kg, po at 6 hrs; assay type: ADME, organism-based; parameters: dose 15 mg/kg, route oral; details: read-out: BPR
[15] = Ratio of drug level in brain to plasma in CD-1 mouse at 10 mg/kg, po measured at 0.5 hrs; assay type: ADME, organism-based; parameters: dose 10 mg/kg, route oral; details: read-out: BPR
[16] = Drug uptake in NCr nude mouse brain xenografted with PTEN deficient human U87MG cells at 40 mg/kg after 1 hr; assay type: ADME, organism-based, U-87MG ATCC; parameters: dose 40 mg/kg; details: read-out: Drug uptake
[17] = Drug uptake in healthy mouse brain at 50 mg/kg after 1 hr; assay type: ADME, organism-based; parameters: dose 50 mg/kg; details: read-out: Drug uptake
[18] = target: Phosphatidylinositol 4-phosphate 3-kinase C2 domain-containing subunit beta (Homo sapiens) (UniProt O00750); experiment: Inhibition of PI3KC2beta at 1 uM
U-87MG ATCC = experiment: Antitumor activity against PTEN deficient human U87MG cells xenografted in NCr nude mouse assessed as inhibition of tumor growth at 3 to 14 mg/kg, po qd for 24 days; assay type: functional, organism-based
[19] = Drug level in CD-1 mouse brain at 50 mg/kg, po administered as single dose measured after 6 hrs post dose; assay type: ADME, organism-based; parameters: dose 50 mg/kg, route oral; details: read-out: Drug uptake
[20] = Drug level in CD-1 mouse brain at 50 mg/kg, po administered as single dose measured after 1 hr post dose; assay type: ADME, organism-based; parameters: dose 50 mg/kg, route oral; details: read-out: Drug uptake
[21] = Ratio of drug level in brain to plasma in CD-1 mouse at 50 mg/kg, po at 1 hr; assay type: ADME, organism-based; parameters: dose 50 mg/kg, route oral; details: read-out: BPR
[22] = Ratio of drug level in brain to plasma in CD-1 mouse at 50 mg/kg, po at 6 hrs; assay type: ADME, organism-based; parameters: dose 50 mg/kg, route oral; details: read-out: BPR
[23] = Cytotoxicity against human A172 cells incubated for 4 days; assay type: functional, cell-based; details: A 172, 96 h
[24] = Cytotoxicity against human Hs683 cells incubated for 4 days; assay type: functional, cell-based; details: Hs 683, 96 h
[25] = Cytotoxicity against human LN229 cells incubated for 4 days; assay type: functional, cell-based; details: LN-229, 96 h
M059J = experiment: Cytotoxicity against human M059J cells incubated for 4 days; assay type: functional, cell-based; details: 96 h
SF-539 = experiment: Cytotoxicity against human SF539 cells incubated for 4 days; assay type: functional, cell-based; details: SF-539, 96 h
[26] = Cytotoxicity against human U87MG cells incubated for 4 days; assay type: functional, cell-based, U-87MG ATCC; details: U-87 MG, 96 h
SF-268 = experiment: Cytotoxicity against human SF268 cells incubated for 4 days; assay type: functional, cell-based; details: SF-268, 96 h
Mus musculus [27] = experiment: Inhibition of PI3K signaling in CD-1 mouse assessed as reduction in pAKT level at 50 mg/kg, po administered as single dose measured after 1 hr post dose by immunoblotting method; assay type: functional; details: CD-1, 1 h
Mus musculus [28] = experiment: Inhibition of PI3K signaling in CD-1 mouse assessed as reduction in pAKT level at 50 mg/kg, po administered as single dose measured after 6 hrs post dose by immunoblotting method; assay type: functional; details: CD-1, 6 h
[29] = Toxicity in PTEN deficient human U87MG cells xenografted in NCr nude mouse at dosed orally once daily for 24 days; assay type: organism-based, U-87MG ATCC; details: in vivo, po
Mus musculus [30] = experiment: Toxicity in PTEN deficient human U87MG cells xenografted in NCr nude mouse assessed as loss in body weight at 30 mg/kg, po qd for 24 days; assay type: organism-based, U-87MG ATCC; parameters: dose 30 mg/kg, route oral; details: in vivo, 576 h
[31] = Antitumor activity in PTEN deficient human U87MG cells xenografted in NCr nude mouse assessed as loss in body weight at 40 mg/kg, po after 24 days; assay type: functional, U-87MG ATCC
Mus musculus [32] = experiment: Toxicity in PTEN deficient human U87MG cells xenografted in NCr nude mouse assessed as loss in body weight at 50 mg/kg, po qd for 24 days; assay type: organism-based, U-87MG ATCC; parameters: dose 50 mg/kg, route oral; details: in vivo, 576 h
Mus musculus [33] = species: Mus musculus; details: NCr, U-87MG ATCC, 10 mg/kg
Mus musculus [34] = species: Mus musculus; details: NCr, U-87MG ATCC, 40 mg/kg
Mus musculus [35] = species: Mus musculus; details: NCr, U-87MG ATCC, 3 mg/kg
Mus musculus [36] = species: Mus musculus; details: NCr, U-87MG ATCC, 10 mg/kg; remark: listed apart in the source
Mus musculus [37] = species: Mus musculus; details: NCr, U-87MG ATCC, 40 mg/kg; remark: listed apart in the source
Mus musculus [38] = species: Mus musculus; details: NCr, U-87MG ATCC, 3 mg/kg; remark: listed apart in the source

Phosphatidylinositol 4,5-bisphosphate 3-kinase catalytic subunit alpha isoform, sequence (P42336 whole entry, canonical isoform): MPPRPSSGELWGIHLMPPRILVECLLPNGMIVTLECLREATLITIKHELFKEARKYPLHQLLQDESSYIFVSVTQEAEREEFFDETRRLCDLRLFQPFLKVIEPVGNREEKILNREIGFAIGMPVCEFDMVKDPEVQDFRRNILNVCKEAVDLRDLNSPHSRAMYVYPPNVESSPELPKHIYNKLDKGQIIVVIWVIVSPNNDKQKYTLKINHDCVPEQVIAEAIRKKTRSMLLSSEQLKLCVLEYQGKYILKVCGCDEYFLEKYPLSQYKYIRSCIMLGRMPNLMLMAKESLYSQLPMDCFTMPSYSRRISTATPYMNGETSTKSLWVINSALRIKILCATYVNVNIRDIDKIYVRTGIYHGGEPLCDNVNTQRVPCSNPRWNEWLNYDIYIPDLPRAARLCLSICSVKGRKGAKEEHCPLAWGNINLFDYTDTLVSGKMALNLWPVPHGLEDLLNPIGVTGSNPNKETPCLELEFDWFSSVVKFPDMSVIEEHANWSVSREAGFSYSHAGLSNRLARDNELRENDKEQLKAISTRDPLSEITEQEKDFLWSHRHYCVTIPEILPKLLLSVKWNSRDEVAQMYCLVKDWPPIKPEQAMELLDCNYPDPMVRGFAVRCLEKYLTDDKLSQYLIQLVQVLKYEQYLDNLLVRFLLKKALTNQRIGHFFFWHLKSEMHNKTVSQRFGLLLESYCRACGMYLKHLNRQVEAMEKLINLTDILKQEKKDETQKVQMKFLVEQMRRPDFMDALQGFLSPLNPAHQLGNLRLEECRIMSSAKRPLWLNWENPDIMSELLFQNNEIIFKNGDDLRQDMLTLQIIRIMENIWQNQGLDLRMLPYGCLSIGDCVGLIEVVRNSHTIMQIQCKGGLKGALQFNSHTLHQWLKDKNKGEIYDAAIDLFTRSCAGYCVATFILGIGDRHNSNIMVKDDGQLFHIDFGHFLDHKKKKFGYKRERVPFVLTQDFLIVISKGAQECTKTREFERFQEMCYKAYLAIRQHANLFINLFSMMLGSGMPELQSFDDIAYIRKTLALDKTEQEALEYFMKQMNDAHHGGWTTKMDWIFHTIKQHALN
Phosphatidylinositol 4-phosphate 3-kinase C2 domain-containing subunit beta (Homo sapiens), sequence (O00750 whole entry, the tested form may be a part): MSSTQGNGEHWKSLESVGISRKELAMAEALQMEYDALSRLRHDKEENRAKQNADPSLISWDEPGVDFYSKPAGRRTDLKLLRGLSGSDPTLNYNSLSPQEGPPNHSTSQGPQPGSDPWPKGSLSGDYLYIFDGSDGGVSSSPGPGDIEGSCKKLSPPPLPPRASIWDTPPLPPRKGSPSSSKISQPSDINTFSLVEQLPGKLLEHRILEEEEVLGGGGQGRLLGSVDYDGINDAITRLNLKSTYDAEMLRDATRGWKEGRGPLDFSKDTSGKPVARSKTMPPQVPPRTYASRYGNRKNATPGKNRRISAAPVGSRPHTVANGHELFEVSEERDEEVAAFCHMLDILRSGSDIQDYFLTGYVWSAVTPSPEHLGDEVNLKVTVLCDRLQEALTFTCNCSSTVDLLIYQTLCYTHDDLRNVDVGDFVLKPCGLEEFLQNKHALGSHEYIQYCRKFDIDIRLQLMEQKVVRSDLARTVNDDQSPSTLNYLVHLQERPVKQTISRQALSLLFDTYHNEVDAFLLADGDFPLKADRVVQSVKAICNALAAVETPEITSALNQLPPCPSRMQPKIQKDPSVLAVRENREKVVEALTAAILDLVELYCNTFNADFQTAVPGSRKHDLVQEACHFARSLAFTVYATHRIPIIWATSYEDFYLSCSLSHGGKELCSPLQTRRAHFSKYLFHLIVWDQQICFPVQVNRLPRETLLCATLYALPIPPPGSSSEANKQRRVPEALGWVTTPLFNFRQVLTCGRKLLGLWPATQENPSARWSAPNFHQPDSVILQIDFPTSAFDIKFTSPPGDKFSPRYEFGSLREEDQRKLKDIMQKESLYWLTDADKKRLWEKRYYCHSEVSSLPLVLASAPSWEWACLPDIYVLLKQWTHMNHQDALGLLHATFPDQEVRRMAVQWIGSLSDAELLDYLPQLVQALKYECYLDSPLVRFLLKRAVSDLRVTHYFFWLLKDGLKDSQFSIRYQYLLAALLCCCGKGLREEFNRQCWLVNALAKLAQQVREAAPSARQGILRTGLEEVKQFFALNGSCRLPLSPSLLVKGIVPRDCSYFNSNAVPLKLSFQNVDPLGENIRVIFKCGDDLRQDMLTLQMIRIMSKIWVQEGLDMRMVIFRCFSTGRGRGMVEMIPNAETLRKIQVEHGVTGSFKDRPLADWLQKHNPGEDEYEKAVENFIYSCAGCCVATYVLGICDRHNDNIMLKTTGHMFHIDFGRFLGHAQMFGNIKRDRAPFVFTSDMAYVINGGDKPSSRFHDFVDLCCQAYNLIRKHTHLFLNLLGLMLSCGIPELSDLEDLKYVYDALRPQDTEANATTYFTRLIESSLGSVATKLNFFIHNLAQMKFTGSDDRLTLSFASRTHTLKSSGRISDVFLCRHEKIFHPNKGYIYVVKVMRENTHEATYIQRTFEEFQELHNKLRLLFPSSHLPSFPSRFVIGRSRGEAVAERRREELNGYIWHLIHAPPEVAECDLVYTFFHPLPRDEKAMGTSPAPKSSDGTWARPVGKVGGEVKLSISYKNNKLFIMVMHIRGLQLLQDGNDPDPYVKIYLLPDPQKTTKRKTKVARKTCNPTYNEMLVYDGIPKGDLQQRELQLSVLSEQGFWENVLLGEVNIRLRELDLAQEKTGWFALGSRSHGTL

- IC50 [1]: 9 nM
- EC50 (PC-3): 364 nM
- clearance [2]: 238 mL/min/kg
- CLhep predicted (in vitro): 11 mL/min/kg
- efflux ratio at 2 h, 5 µM (mouse Bcrp1): 1
Compound: Cc1csc2c(N3CCOCC3)nc(-c3cnc(N)nc3)nc12

- fraction unbound [9]: 0.006
- fraction unbound [10]: 0.003
- Ki [4]: 13 nM
- CL/F [11]: 16 mL/min/kg
- half-life [5]: 2.9 h
- bioavailability [12]: 93%
- fraction unbound [6]: 0.006
- Kp at 1 h [13]: 1.4
- Kp at 6 h [14]: 1.6
- efflux ratio at 2 h, 5 µM (mouse Bcrp1): 2.3
Compound: CC1(C)OCCc2c1sc1c(N3CCOCC3)nc(-c3cnc(N)nc3)nc21

- efflux ratio at 2 h, 5 µM (mouse Bcrp1): 5.4
Compound: Cc1c(C(C)(C)O)sc2c(N3CCOCC3)nc(-c3cnc(N)nc3)nc12

The remaining lines, values behind:

Compound: CC(C)(O)c1cc2nc(-c3cnc(N)nc3)nc(N3CCOCC3)c2s1
- Kp at 0.5 h [3]: 0.2
- Ki [4]: 30 nM
- half-life [5]: 2.2 h
- fraction unbound [6]: 0.198
- Kp at 0.5 h [7]: 0.3
- Kp at 4 h [8]: 0.2
- CLhep predicted (in vitro): 4 mL/min/kg

Compound: CC(=O)N1CC(c2cc3nc(-c4cnc(N)nc4)nc(N4CCOCC4)c3s2)C1
- efflux ratio at 2 h, 5 µM (mouse Bcrp1): 43

Compound: COCCOC1(c2cc3nc(-c4cnc(N)nc4)nc(N4CCOCC4)c3s2)COC1
- efflux ratio at 2 h, 5 µM (mouse Bcrp1): 1.4

Compound: CS(=O)(=O)N1CCN(Cc2cc3nc(-c4cccc5[nH]ncc45)nc(N4CCOCC4)c3s2)CC1 [PICTILISIB]
- Kp at 0.5 h [15]: < 0.05

Compound: COC1(c2sc3c(N4CCOCC4)nc(-c4cnc(N)nc4)nc3c2C)COC1
- concentration at 1 h [16]: 2200 nM
- concentration at 1 h [17]: 3600 nM
- inhibition [18]: 77%
- TGI (U-87MG ATCC): Dose-dependent effect
- concentration at 6 h [19]: 2310 nM
- concentration at 1 h [20]: 3640 nM
- CL/F [11]: 32 mL/min/kg
- half-life [5]: 17 h
- bioavailability [12]: 75%
- fraction unbound [6]: 0.15
- Kp at 1 h [21]: 1
- Kp at 6 h [22]: 1
- EC50 [23]: 240 nM
- EC50 [24]: 230 nM
- EC50 [25]: 140 nM
- EC50 (M059J): 330 nM
- EC50 (SF-539): 250 nM
- EC50 [26]: 250 nM
- EC50 (SF-268): 570 nM
- inhibition in vivo at 50 mg/kg (Mus musculus [27]): 62%
- inhibition in vivo at 50 mg/kg (Mus musculus [28]): 31%
- MTD at 576 h [29]: 40 mg/kg
- Activity (Mus musculus [30]): Non-toxic
- Activity [31]: <15%
- Activity (Mus musculus [32]): > 15%
- inhibition (Mus musculus [33]): Active
- inhibition (Mus musculus [34]): Active
- inhibition (Mus musculus [35]): Active
- inhibition (Mus musculus [36]): Active
- inhibition (Mus musculus [37]): Active
- inhibition (Mus musculus [38]): Active

From ChEMBL document CHEMBL2177093, “The design and identification of brain penetrant inhibitors of phosphoinositide 3-kinase α” (J Med Chem, 2012)
